This is an account of results in patent US20040147720A1, “Novel guasonine triphosphate-binding protein -coupled receptor place 6002312, its gene and production and use of the same” (priority 2001, published 2004).

For test [1], the system named is HEK293 cells (Mock). Particulars: HEK293 cells (Mock) with pcDNA3.1(−), not expressing PLACE6002312; [^3H]-histamine 0, 40, 80, 160 nM; room temperature 1 hr; FIG. 7. The method, then:
(§1) The ligand-binding assay can serve as a direct method of receptor pharmacology, and is applicable to high-throughput systems. […] First, human embryonic kidney 293 (HEK293) cells were plated on a 10-cm cell culture dish at the cell density of 1×10^6 cells/dish, and incubated in a humidified incubator under 5% CO2 at 37° C. for 24 hr. Then, 10 μg/dish of pcDNA3.1(−)-PLACE6002312 plasmid was transfected by the calcium phosphate method (Mol. Pharm. (1997)-51: 171). After the culturing was continued for 14 hr, the medium was changed with fresh D-MEM containing 10% FBS, and the cells were incubated for another 2 days. After the culturing had completed, the cells were washed with PBS(−), and then suspended in FBS-free D-MEM at the cell density of 1×10^6 cells/ml. The cell suspension were aliquoted (50 μl/well) into flat-bottomed 96-well plate (Sumitomo Bakelite Co.) pre-siliconized with Siliconize L-25 (Fuji Systems). 50-μl aliquots of D-MEM were added to each well, and then radio-labeled [^3H]-histamine was added thereto at the final concentrations of 0, 40, 80, and 160 nM. The plate was incubated at room temperature for 1 hr. Assays for the non-specific binding of [^3H]-histamine were carried out using D-MEM to which unlabeled histamine had been added previously at the final concentration of 1×10^−5 M. […]

The target of test [2] is PLACE6002312 polypeptide (Homo sapiens, UniProt Q8TDU6). Particulars: HEK293 cells with pcDNA3.1(−)-PLACE6002312; [^3H]-histamine 0, 40, 80, 160 nM; room temperature 1 hr; non-specific binding with 1×10^−5 M unlabeled histamine; FIG. 7. As for the experimental part: as §1
Chain of PLACE6002312 polypeptide (Q8TDU6 whole entry): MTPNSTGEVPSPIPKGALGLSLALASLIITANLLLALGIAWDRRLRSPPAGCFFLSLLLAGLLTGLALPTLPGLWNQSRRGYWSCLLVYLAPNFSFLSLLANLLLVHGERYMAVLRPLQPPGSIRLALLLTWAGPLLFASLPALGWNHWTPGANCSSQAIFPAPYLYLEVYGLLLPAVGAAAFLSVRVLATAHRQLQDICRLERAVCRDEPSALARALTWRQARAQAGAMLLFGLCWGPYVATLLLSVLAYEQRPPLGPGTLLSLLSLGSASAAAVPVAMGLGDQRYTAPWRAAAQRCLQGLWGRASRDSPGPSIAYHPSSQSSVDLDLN

For `NCCc1c[nH]cn1` [histamine], the “specific binding to [^3H]-histamine (total binding minus non-specific binding)” value was “undetectable” in test [1] and “detected” in test [2].
